From patent US9421209B2, “Kinase modulators” (Rhizen Pharmaceuticals SA, priority 2009, dated 2016)
Read-outs that look alike come from different tables or passages of the source.

How the values were obtained:
P110 δ/Pi3K δ = P110 δ/Pi3K δ (Homo sapiens, UniProt O00329); assay: Fluorescent (HTRF) determination of PI3K enzyme activity, δ isoform; type: biochemical; set-up: inhibition: dose or concentration left out as unconfirmed
Excerpt: Assay 1: Fluorescent determination of PI3Kinase Kinase enzyme activity
Phosphoinositide 3 kinases (PI3K) belong to a class of lipid kinases that play a critical role in the regulation of several key cellular processes. The PI3K are capable of phosphorylating the 3-hydroxy position of phosphoinositols thereby generating second messengers involved in downstream signalling events. The homogenous time resolved fluorescence (HTRF) assay allows detection of 3,4,5-triphosphate (PIP3) formed as a result of phosphorylation of phosphotidylinositol 4,5-biphosphate (PIP2) by PI3K isoforms such as α, β, γ or δ.
PI3K isoform activity for α, β, γ or δ was determined using a PI3K human HTRF™ Assay Kit (Millipore, Billerica, Mass.) with modifications. All incubations were carried out at room temperature. […] After the initial incubation, 5 μl/well of 400 μM ATP was added and incubated for an additional 30 minutes. Reaction was terminated by adding 5 μl/well stop solution (Millipore, Billerica, Mass.). Five microliters of detection mix (Millipore, Billerica, Mass.) were then added to each well and was incubated for 6-18 h in the dark. […] Data were analyzed using Graphpad Prism (Graphpad software; San Diego Calif.) for IC50 determination. Percent inhibition was calculated based on the values for the blank and enzyme controls.

[1] = read-out: P110 δ/Pi3K δ IC 50 nM

P110 δ/Pi3K δ, sequence (O00329 whole entry, canonical isoform): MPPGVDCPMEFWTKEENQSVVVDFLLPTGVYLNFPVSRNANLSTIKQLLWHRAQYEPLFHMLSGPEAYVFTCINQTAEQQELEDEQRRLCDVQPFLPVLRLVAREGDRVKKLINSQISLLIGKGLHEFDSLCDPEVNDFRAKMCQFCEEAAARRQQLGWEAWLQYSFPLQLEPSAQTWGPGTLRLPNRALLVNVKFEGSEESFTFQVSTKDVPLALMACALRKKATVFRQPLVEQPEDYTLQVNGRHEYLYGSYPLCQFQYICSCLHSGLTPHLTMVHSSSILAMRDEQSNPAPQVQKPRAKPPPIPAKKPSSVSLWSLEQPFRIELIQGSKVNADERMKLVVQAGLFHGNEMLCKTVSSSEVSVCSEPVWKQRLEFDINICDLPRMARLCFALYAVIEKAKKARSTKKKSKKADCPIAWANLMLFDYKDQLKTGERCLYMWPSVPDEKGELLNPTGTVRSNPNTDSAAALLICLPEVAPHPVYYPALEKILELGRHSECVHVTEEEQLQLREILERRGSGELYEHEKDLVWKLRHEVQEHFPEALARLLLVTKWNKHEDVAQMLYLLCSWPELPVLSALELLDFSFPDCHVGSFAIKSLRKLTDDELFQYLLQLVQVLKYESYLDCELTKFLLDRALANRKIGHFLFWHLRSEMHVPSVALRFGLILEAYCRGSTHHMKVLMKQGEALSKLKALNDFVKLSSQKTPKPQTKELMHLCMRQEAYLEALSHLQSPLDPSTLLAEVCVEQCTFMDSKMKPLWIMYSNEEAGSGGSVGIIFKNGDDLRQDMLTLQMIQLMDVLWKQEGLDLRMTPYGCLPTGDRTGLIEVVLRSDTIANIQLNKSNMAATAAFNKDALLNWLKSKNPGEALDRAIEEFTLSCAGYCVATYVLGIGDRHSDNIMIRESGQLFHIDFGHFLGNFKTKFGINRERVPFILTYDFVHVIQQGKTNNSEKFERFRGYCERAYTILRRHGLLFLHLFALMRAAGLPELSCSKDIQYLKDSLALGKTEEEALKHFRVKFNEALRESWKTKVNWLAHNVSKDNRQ
P110 δ/Pi3K δ, sequence (P27986 whole entry partner, canonical isoform): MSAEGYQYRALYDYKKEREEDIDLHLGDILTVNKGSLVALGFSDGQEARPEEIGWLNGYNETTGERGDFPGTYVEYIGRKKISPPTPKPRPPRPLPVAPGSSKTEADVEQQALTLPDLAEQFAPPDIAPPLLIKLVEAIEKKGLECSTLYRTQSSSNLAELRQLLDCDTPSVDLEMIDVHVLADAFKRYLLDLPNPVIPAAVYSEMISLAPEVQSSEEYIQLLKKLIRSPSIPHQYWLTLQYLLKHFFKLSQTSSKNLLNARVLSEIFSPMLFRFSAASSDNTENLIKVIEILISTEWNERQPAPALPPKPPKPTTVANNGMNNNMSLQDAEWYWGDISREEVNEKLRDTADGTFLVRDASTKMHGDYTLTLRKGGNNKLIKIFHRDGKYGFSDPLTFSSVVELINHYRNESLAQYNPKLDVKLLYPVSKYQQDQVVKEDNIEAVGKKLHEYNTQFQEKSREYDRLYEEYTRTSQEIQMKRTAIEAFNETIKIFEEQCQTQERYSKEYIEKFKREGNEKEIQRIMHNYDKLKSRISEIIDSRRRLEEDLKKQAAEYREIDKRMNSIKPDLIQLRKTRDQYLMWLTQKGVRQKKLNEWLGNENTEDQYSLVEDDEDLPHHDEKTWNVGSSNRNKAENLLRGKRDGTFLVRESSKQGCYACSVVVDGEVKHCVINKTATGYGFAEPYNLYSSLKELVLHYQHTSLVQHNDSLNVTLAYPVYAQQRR

Compound | inhibition (P110 δ/Pi3K δ) | melting point | inhibition at 1 µM (P110 δ/Pi3K δ) | IC50 (P110 δ/Pi3K δ; [1]) | IC50 (P110 δ/Pi3K δ; read-out: P110 δ/ Pi3K δ IC 50 nM)
CC(c1oc2ccccc2c(=O)c1-c1cccc(F)c1)n1ncc2c(Cl)ccnc21 (stereo not drawn) [Example 167, 2-(1-(4-Chloro-1H-pyrazolo[3,4-b]pyridin-1-yl)ethyl)-3-(3-fluorophenyl)-4H-chromen-4-one] | < 50% | 173 to 176 °C |  |  | 
Nc1ncnc2c1ncn2Cc1oc2ccc(Br)cc2c(=O)c1-c1ccccc1F [Example 29, 2-((6-Amino-9H-purin-9-yl)methyl)-6-bromo-3-(2-fluorophenyl)-4H-chromen-4-one] |  | 231 to 233 °C | < 50% |  | 
CC(c1oc2ccc(Br)cc2c(=O)c1-c1ccccc1)n1cnc2c(N)ncnc21 (stereo not drawn) [Example 21, 2-(1-(6-Amino-9H-purin-9-yl)ethyl)-6-bromo-3-phenyl-4H-chromen-4-one] |  | 230 to 231 °C | < 50% |  | 
Cc1n[nH]c(C)c1-c1nn(C(C)c2oc3ccccc3c(=O)c2-c2cccc(F)c2)c2ncnc(N)c12 (stereo not drawn) [Example 78, 2-(1-(4-amino-3-(3,5-dimethyl-1H-pyrazol-4-yl)-1H-pyrazolo[3,4-d]pyrimidin-1-yl)ethyl)-3-(3-fluorophenyl)-4H-chromen-4-one] | < 50% | 240 to 243 °C |  |  | 
CC(c1oc2ccccc2c(=O)c1-c1ccccc1)n1nc(C#CC(C)(C)O)c2c(N)ncnc21 (stereo not drawn) [Example 71, 2-(1-(4-amino-3-(3-hydroxy-3-methylbut-1-ynyl)-1H-pyrazolo[3,4-d]pyrimidin-1-yl)ethyl)-3-phenyl-4H-chromen-4-one] |  | 109 to 113 °C | < 50% |  | 
Nc1ncnc2c1c(-c1cccnc1)nn2Cc1oc2ccccc2c(=O)c1-c1ccccc1 [Example 58, 2-((4-amino-3-(pyridin-3-yl)-1H-pyrazolo[3,4-d]pyrimidin-1-yl)methyl)-3-phenyl-4H-chromen-4-one] |  | 253 to 255 °C | < 50% |  | 
CC(c1oc2ccccc2c(=O)c1-c1cccc(F)c1)n1ncc2c(Cl)ncnc21 (stereo not drawn) [Example 168, 2-(1-(4-Chloro-1H-pyrazolo[3,4-d]pyrimidin-1-yl)ethyl)-3-(3-fluorophenyl)-4H-chromen-4-one] | < 50% | 197 to 201 °C |  |  | 
CC(c1oc2ccccc2c(=O)c1-c1ccccc1)n1nc(-c2ccc3cn[nH]c3c2)c2c(N)ncnc21 (stereo not drawn) [Example 70, 2-(1-(4-amino-3-(1H-indazol-6-yl)-1H-pyrazolo[3,4-d]pyrimidin-1-yl)ethyl)-3-phenyl-4H-chromen-4-one] |  | 176 to 178 °C | 50 to 100% |  | 
CC(c1oc2ccccc2c(=O)c1-c1cccc(F)c1)n1nc(-c2ccc(F)nc2)c2c(N)ncnc21 (stereo not drawn) [Example 159, 2-(1-(4-amino-3-(6-fluoropyridin-3-yl)-1H-pyrazolo[3,4-d]pyrimidin-1-yl)ethyl)-3-(3-fluorophenyl)-4H-chromen-4-one] | < 50% | 203 to 206 °C |  |  | 
CC(c1oc2ccccc2c(=O)c1-c1cccc(F)c1)n1nc(-c2cccc3[nH]ncc23)c2c(N)ncnc21 (stereo not drawn) [Example 77, 2-(1-(4-amino-3-(1H-indazol-4-yl)-1H-pyrazolo[3,4-d]pyrimidin-1-yl)ethyl)-3-(3-fluorophenyl)-4H-chromen-4-one] |  | 231 to 233 °C | 50 to 100% |  | 
C[C@@H](Nc1ncnc2[nH]cnc12)c1oc2ccccc2c(=O)c1-c1cccc(F)c1 [Example 56, (R)-2-(1-(9H-purin-6-ylamino)ethyl)-3-(3-fluorophenyl)-4H-chromen-4-one] |  | 274 to 276 °C | < 50% |  | 
CC(c1oc2ccccc2c(=O)c1-c1cccc(F)c1)n1nc(-c2ccc3cc(O)ccc3c2)c2c(N)ncnc21 (stereo not drawn) [Example 162, 2-(1-(4-amino-3-(6-hydroxynaphthalen-2-yl)-1H-pyrazolo[3,4-d]pyrimidin-1-yl)ethyl)-3-(3-fluorophenyl)-4H-chromen-4-one] | 50 to 100% | 281 to 285 °C |  |  | 
Nc1ncnc2c1c(C#CCO)nn2Cc1oc2ccccc2c(=O)c1-c1ccccc1 [Example 59, 2-((4-amino-3-(3-hydroxyprop-1-ynyl)-1H-pyrazolo[3,4-d]pyrimidin-1-yl)methyl)-3-phenyl-4H-chromen-4-one] |  | 171 to 173 °C | 50 to 100% | 250 to 500 nM | 
CC(c1oc2ccccc2c(=O)c1-c1cccc(F)c1)n1nc(-c2ccc(O)c(O)c2)c2c(N)ncnc21 (stereo not drawn) [Example 98, 2-(1-(4-amino-3-(3,4-dihydroxyphenyl)-1H-pyrazolo[3,4-d]pyrimidin-1-yl)ethyl)-3-(3-fluorophenyl)-4H-chromen-4-one] | 50 to 100% | 193 to 195 °C |  |  | < 250 nM
CC(c1oc2ccccc2c(=O)c1-c1cccc(F)c1)n1nc(-c2ccc(C=O)o2)c2c(N)ncnc21 (stereo not drawn) [Example 179, 5-(4-amino-1-(1-(3-(3-fluorophenyl)-4-oxo-4H-chromen-2-yl)ethyl)-1H-pyrazolo[3,4-d]pyrimidin-3-yl)furan-2-carbaldehyde] | 50 to 100% | 215 to 217 °C |  |  | 
O=c1c(-c2ccccc2)c(CNc2ncnc3[nH]cnc23)oc2ccc(Br)cc12 [Example 25, 2-((9H-purin-6-ylamino)methyl)-6-bromo-3-phenyl-4H-chromen-4-one] |  | 151 to 154 °C | < 50% |  | 
Cc1n[nH]c2cc(-c3nn(Cc4oc5ccccc5c(=O)c4-c4cccc(F)c4)c4ncnc(N)c34)ccc12 [Example 99, 2-((4-amino-3-(3-methyl-1H-indazol-6-yl)-1H-pyrazolo[3,4-d]pyrimidin-1-yl)methyl)-3-(3-fluorophenyl)-4H-chromen-4-one] | 50 to 100% | 246 to 248 °C |  |  | 
COc1ccc(NC(C)c2oc3ccc(F)cc3c(=O)c2-c2cccc(F)c2)cc1 (stereo not drawn) [Example 165, 6-Fluoro-3-(3-fluorophenyl)-2-(1-(4-methoxyphenylamino)ethyl)-4H-chromen-4-one] | < 50% | 152 to 156 °C |  |  | 

Continued, values first:

inhibition (P110 δ/Pi3K δ) | melting point | inhibition at 1 µM (P110 δ/Pi3K δ) | IC50 (P110 δ/Pi3K δ; [1]) | IC50 (P110 δ/Pi3K δ; read-out: P110 δ/ Pi3K δ IC 50 nM) | Compound
 | 122 to 123 °C | < 50% |  |  | CC(=O)Nc1cccc(-c2nn(Cc3oc4ccccc4c(=O)c3-c3ccccc3)c3ncnc(N)c23)c1 [Example 65, N-(3-(4-amino-1-((4-oxo-3-phenyl-4H-chromen-2-yl)methyl)-1H-pyrazolo[3,4-d]pyrimidin-3-yl)phenyl)acetamide]
 | 115 to 117 °C | < 50% |  |  | COc1cc(F)cc(-c2nn(Cc3oc4ccccc4c(=O)c3-c3cccc(F)c3)c3ncnc(N)c23)c1 [Example 67, 2-((4-amino-3-(3-fluoro-5-methoxyphenyl)-1H-pyrazolo[3,4-d]pyrimidin-1-yl)methyl)-3-(3-fluorophenyl)-4H-chromen-4-one]
 | 260 to 262 °C | 50 to 100% | < 250 nM |  | Nc1ncnc2c1c(-c1cc(O)cc(F)c1)nn2Cc1oc2ccccc2c(=O)c1-c1ccccc1 [Example 66a, 2-((4-amino-3-(3-fluoro-5-hydroxyphenyl)-1H-pyrazolo[3,4-d]pyrimidin-1-yl)methyl)-3-phenyl-4H-chromen-4-one]
50 to 100% | 232 to 235 °C |  |  |  | COc1ccc(-c2nn(C(C)c3oc4ccccc4c(=O)c3-c3cccc(F)c3)c3ncnc(N)c23)cc1OC (stereo not drawn) [Example 97, 2-(1-(4-amino-3-(3,4-dimethoxyphenyl)-1H-pyrazolo[3,4-d]pyrimidin-1-yl)ethyl)-3-(3-fluorophenyl)-4H-chromen-4-one]
 | 210 to 212 °C | < 50% |  |  | CC(c1oc2ccccc2c(=O)c1-c1ccc(F)cc1)n1cnc2c(N)ncnc21 (stereo not drawn) [Example 39, 2-(1-(6-Amino-9H-purin-9-yl)ethyl)-3-(4-fluorophenyl)-4H-chromen-4-one]
< 50% | 198 to 201 °C |  |  |  | CC(C)Oc1ccc(F)c(-c2nn(C(C)c3oc4ccccc4c(=O)c3-c3cccc(F)c3)c3ncnc(N)c23)c1 (stereo not drawn) [Example 132, 2-(1-(4-amino-3-(2-fluoro-5-isopropoxyphenyl)-1H-pyrazolo[3,4-d]pyrimidin-1-yl)ethyl)-3-(3-fluorophenyl)-4H-chromen-4-one]
< 50% | 104 to 106 °C |  |  |  | CC(c1oc2ccccc2c(=O)c1-c1cccc(F)c1)n1nc(-c2cccc(C(=O)N3CCOCC3)c2)c2c(N)ncnc21 (stereo not drawn) [Example 177, 2-(1-(4-amino-3-(3-(morpholine-4-carbonyl)phenyl)-1H-pyrazolo[3,4-d]pyrimidin-1-yl)ethyl)-3-(3-fluorophenyl)-4H-chromen-4-one]
50 to 100% | 244 to 247 °C |  |  |  | CC(c1oc2ccccc2c(=O)c1-c1cccc(F)c1)n1nc(-c2ccc(O)cc2)c2c(N)ncnc21 (stereo not drawn) [Example 88a, 2-(1-(4-amino-3-(4-hydroxyphenyl)-1H-pyrazolo[3,4-d]pyrimidin-1-yl)ethyl)-3-(3-fluorophenyl)-4H-chromen-4-one]
50 to 100% | 127 to 129 °C |  |  |  | Nc1ncnc2c1c(-c1cc(O)cc(F)c1)nn2Cc1oc2ccc(F)cc2c(=O)c1-c1cccc(F)c1 [Example 120a, 2-((4-amino-3-(3-fluoro-5-hydroxyphenyl)-1H-pyrazolo[3,4-d]pyrimidin-1-yl)methyl)-6-fluoro-3-(3-fluorophenyl)-4H-chromen-4-one]
